{"source": "patent US7332476B2", "about": "“Pyridyl substituted ketolide antibiotics” (Novartis AG, priority 2003, dated 2008)", "key": {"[1]": {"tested_on": "Enterococcus faecalis Enfa_29212", "experiment": "MIC, broth microdilution (NCCLS)", "format": "cell-based", "settings": "strain ID E; broth microdilution", "summary_of_the_method": "(§1)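 Broth microdilution per NCCLS in cation-adjusted Mueller-Hinton broth, with 2-5% lysed horse blood added for S. pneumoniae. Inoculum 3×10^5–7×10^5 CFU/ml, 2-fold drug dilutions, 18-24 h at 35° C; S. pneumoniae under 5-10% CO2, others ambient air. MIC = lowest concentration preventing visible growth.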"}, "[2]": {"tested_on": "Haemophilus influenzae Hain_49247", "experiment": "MIC, broth microdilution (NCCLS)", "format": "cell-based", "settings": "strain ID H; broth microdilution; unit assumed"}, "[3]": {"tested_on": "Staphylococcus aureus Stau_29213", "experiment": "MIC, broth microdilution (NCCLS)", "format": "cell-based", "settings": "strain ID A; broth microdilution; in µg/mL (unit assumed)", "summary_of_the_method": "as §1"}, "[4]": {"tested_on": "Staphylococcus epidermidis Step_14990", "experiment": "MIC, broth microdilution (NCCLS)", "format": "cell-based", "settings": "strain ID C; broth microdilution; in µg/mL (unit assumed)", "summary_of_the_method": "as §1"}, "[5]": {"tested_on": "Staphylococcus epidermidis Step_f50654", "experiment": "MIC, broth microdilution (NCCLS)", "format": "cell-based", "settings": "strain ID D; broth microdilution; in µg/mL (unit assumed)", "summary_of_the_method": "as §1"}, "[6]": {"tested_on": "Streptococcus pneumoniae Stpn_Erm S 4297", "experiment": "MIC, broth microdilution (NCCLS)", "format": "cell-based", "settings": "strain ID Q; broth microdilution", "summary_of_the_method": "as §1"}, "[7]": {"tested_on": "Enterococcus faecalis Enfa_bc 11148-2", "experiment": "MIC, broth microdilution (NCCLS)", "format": "cell-based", "settings": "strain ID F; broth microdilution; in µg/mL (unit assumed)", "summary_of_the_method": "(§2)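 Following NCCLS guidance, each isolate at 3×10^5–7×10^5 CFU/ml met serially halved compound concentrations in cation-adjusted Mueller-Hinton broth or Haemophilus Test Medium. The endpoint was the lowest concentration giving no visible growth after 18-24 hours at 35° C.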"}, "[8]": {"tested_on": "Haemophilus influenzae Hain_2762", "experiment": "MIC, broth microdilution (NCCLS)", "format": "cell-based", "settings": "strain ID L; broth microdilution; in µg/mL (unit assumed)", "summary_of_the_method": "as §2"}, "[9]": {"tested_on": "Haemophilus influenzae Hain_953460299-3", "experiment": "MIC, broth microdilution (NCCLS)", "format": "cell-based", "settings": "strain ID K; broth microdilution; in µg/mL (unit assumed)", "summary_of_the_method": "as §2"}, "[10]": {"tested_on": "Haemophilus influenzae Hain_960730503-3", "experiment": "MIC, broth microdilution (NCCLS)", "format": "cell-based", "settings": "strain ID I; broth microdilution; in µg/mL (unit assumed)", "summary_of_the_method": "as §2"}, "[11]": {"tested_on": "Haemophilus influenzae Hain_960820544-3", "experiment": "MIC, broth microdilution (NCCLS)", "format": "cell-based", "settings": "strain ID J; broth microdilution; in µg/mL (unit assumed)", "summary_of_the_method": "as §2"}, "[12]": {"tested_on": "Staphylococcus aureus Stau_33591", "experiment": "MIC, broth microdilution (NCCLS)", "format": "cell-based", "settings": "strain ID B; broth microdilution; unit assumed", "summary_of_the_method": "as §2"}, "[13]": {"tested_on": "Streptococcus pyogenes Stpy_8668", "experiment": "MIC, broth microdilution (NCCLS)", "format": "cell-based", "set-up": "MIC, strain ID G: unit not given beside the values", "settings": "strain ID G; broth microdilution", "summary_of_the_method": "as §1"}, "[14]": {"tested_on": "Streptococcus pneumoniae Stpn_49619", "experiment": "MIC, broth microdilution (NCCLS)", "format": "cell-based", "set-up": "MIC, strain ID M: unit not given beside the values", "settings": "strain ID M; broth microdilution", "summary_of_the_method": "as §1"}, "[15]": {"tested_on": "Streptococcus pneumoniae Stpn_297-749", "experiment": "MIC, broth microdilution (NCCLS)", "format": "cell-based", "set-up": "MIC, strain ID N: unit not given here", "settings": "strain ID N; broth microdilution", "summary_of_the_method": "as §1"}, "[16]": {"tested_on": "Streptococcus pneumoniae Stpn_280-962", "experiment": "MIC, broth microdilution (NCCLS)", "format": "cell-based", "set-up": "MIC, strain ID O: unit not given beside the values", "settings": "strain ID O; broth microdilution", "summary_of_the_method": "as §1"}, "[17]": {"tested_on": "S. pneumoniae Stpn_Erm 6849", "experiment": "MIC, broth microdilution (NCCLS)", "format": "cell-based, Streptococcus pneumoniae", "settings": "strain ID P; broth microdilution; in µg/mL (unit assumed)", "summary_of_the_method": "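Lowest drug concentration giving no visible growth after 18-24 hours at 35° C. under 5-10% CO2 was taken as MIC. Twofold serial dilutions in CAMHB plus 2-5% lysed horse blood, final inoculum 3×10^5–7×10^5 CFU/ml, per NCCLS microdilution.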"}, "[18]": {"experiment": "In vivo pharmacokinetic study in rats, plasma (IV and PO)", "set-up": "species or system Sprague-Dawley rats", "settings": "rat", "protocol": "(§3) Animal Models. A total of 54 male Sprague-Dawley rats, weighing 200 grams in average, were evaluated for pharmacokinetic studies of representative pyridyl substituted ketolides. Rats were under overnight food restriction and received water ad libitum. Rats were acclimated for approximately 5 days before antibiotic administration.\n(§4) Antibiotic Administration. Rats were given bolus administration through (IV) and oral (PO) routes. Representative pyridyl substituted ketolides and telithromycin, for comparison, were diluted in 0.85% saline to a concentration of 15.0 mg/ml, and the resulting pH was adjusted using 1N acetic acid until the compound was in solution. Approximately 200 microliters of the compound solution was administered to the rats. The target dose for IV and PO administration was 5 mg/kg and 15 mg/kg, respectively.\n(§5) Sample Collection. Plasma and whole lung samples were collected from the rats. Plasma samples were obtained from blood samples by centrifugation at 3000 RPM for 10 min. Heparin was added in the plasma as an anticoagulant. Whole lung samples were homogenized in deionized water. Samples were stored at −80° C. A total of 9 time points were collected in triplicate at 0.083, 0.25, 0.5, 1, 2, 4, 6, 8, and 24 hrs. Ketolide concentrations in plasma and lung were determined by well-established non-GLP LC-MS-MS methods. PK parameters were estimated from the raw bioanalytical data using WinNolin software (Version 4.0, Pharsight Corporation, CA). […] All representative compounds were compared to telithromycin."}, "[19]": {"experiment": "In vivo pharmacokinetic study in rats, whole lung (IV and PO)", "settings": "male, Sprague-Dawley, 5 mg/kg, rat", "protocol": "as §3, §4, §5"}}}
{"smiles": "C=C[C@]12OC(=O)N(CCCCn3cnc(-c4cnccc4Cl)c3)[C@@H]1[C@@H](C)C(=O)[C@H](C)C[C@](C)(OC)[C@H](OC1O[C@H](C)C[C@H](N(C)C)[C@H]1O)[C@@H](C)C(=O)[C@@H](C)C(=O)O[C@@H]2CC", "note": "(stereo partly drawn) [XXX]", "values": [{"measurement": "MIC, strain ID E", "setting": "[1]", "value": "=0.05"}, {"measurement": "MIC, strain ID H", "setting": "[2]", "value": 3.13, "unit": "µg/mL"}, {"measurement": "MIC, strain ID A", "setting": "[3]", "value": 0.2}, {"measurement": "MIC, strain ID C", "setting": "[4]", "value": 0.2}, {"measurement": "MIC, strain ID D", "setting": "[5]", "value": 0.1}, {"measurement": "MIC, strain ID Q", "setting": "[6]", "value": "=0.05"}, {"measurement": "MIC, strain ID F", "setting": "[7]", "value": 0.4}, {"measurement": "MIC, strain ID L", "setting": "[8]", "value": 0.78}, {"measurement": "MIC, strain ID K", "setting": "[9]", "value": 3.13}, {"measurement": "MIC, strain ID I", "setting": "[10]", "value": 6.25}, {"measurement": "MIC, strain ID J", "setting": "[11]", "value": 6.25}, {"measurement": "MIC, strain ID B", "setting": "[12]", "value": "> 50", "unit": "µg/mL"}, {"measurement": "MIC, strain ID G", "setting": "[13]", "value": "=0.05"}, {"measurement": "MIC, strain ID M", "setting": "[14]", "value": "=0.05"}, {"measurement": "MIC, strain ID N", "setting": "[15]", "value": "=0.05"}, {"measurement": "MIC, strain ID O", "setting": "[16]", "value": "=0.05"}, {"measurement": "MIC, strain ID P", "setting": "[17]", "value": 0.4}, {"measurement": "half-life", "setting": "[18]; male, Sprague-Dawley, 5 mg/kg, IV, plasma, read-out: t1/2, IV Plasma (converted)", "value": 1, "unit": "h"}, {"measurement": "AUC", "setting": "[18]; male, Sprague-Dawley, plasma, IV, dose IV = 5 mg/kg (Compound XIV: IV = 15)", "value": 2100, "unit": "ng·h/mL"}, {"measurement": "clearance", "setting": "[18]; male, Sprague-Dawley, plasma, intravenous", "value": 121, "unit": "mL/min/kg"}, {"measurement": "Vd", "setting": "[18]; male, Sprague-Dawley, plasma, intravenous, read-out: Vss", "value": 8, "unit": "L/kg"}, {"measurement": "F, PO", "setting": "[18]; PO = 15 mg/kg", "value": 21, "unit": "%"}, {"measurement": "half-life", "setting": "[19]; IV, whole lung, read-out: t1/2, IV Lung (converted)", "value": 1.2, "unit": "h"}, {"measurement": "Kp", "setting": "[19]; lung/plasma, iv, read-out: L/P ratio, IV", "value": 75}]}
